Values of other authors in patent US20170112823A1, “COMPOSITIONS AND METHODS TO TREAT […] RELATED CONDITIONS” (priority 2015, published 2017).

Conditions: frequency of side effect

Row | Compound | side effect: dizziness [%] | side effect: dry mouth [%] | side effect: headache [%] | side effect: nausea [%] | side effects: very commonly, dizziness and drowsiness [%]
1 | CNCC[C@H](Oc1cccc2ccccc12)c1cccs1 [Cymbalta, Duloxetine] | 19 | 23 | 20 | 34 | 
2 | CC(C)C[C@H](CN)CC(=O)O [LYRICA, Pregabalin] |  |  |  |  | > 10
